Measured values published in US9157088B2, “Transferases, epimerases, polynucleotides encoding these and uses thereof” (priority 2007, dated 2015).
“And” between values parts separate entries of the source, which are not always exact repeats. Equal entries are not always repeated. Each block holds one molecule with its values, some of them ahead of it.

Experiments:
[1] = tested on: L-Galactose dehydrogenase; assay: L-Galactose dehydrogenase substrate specificity; assay type: biochemical, A. deliciosa (kiwifruit)
Method: (§1) L-Galactose dehydrogenase (Gen Bank accession AA018639 (EST 56121), 1.5 ug/assay) was cloned from an EST derived from an A. deliciosa (kiwifruit) shoot bud library with a maltose binding protein presequence and assayed as described previously (Laing et al., 2004). L-Galactose-1-Phosphate phosphatase was cloned from Arabidopsis thaliana (At3g02870, 3.1 ug/assay) and assayed as described (Laing et al., 2004). GDP-D-Mannose 3′,5′-Epimerase (198296) was cloned from dormant kiwifruit (A. deliciosa) buds three days after hydrogen cyanamide treatment and assayed as described (Wolucka et al., 2001). The former two enzymes are highly specific as to their substrates (Laing et al., 2004; Laing et al., 2004).
The applicants used two assays to characterise the enzyme, using two sources of the substrate GDP-L-Galactose. The first assay used the E. coli expressed coupling enzymes L-Galactose-1-Phosphate phosphatase and L-Galactose dehydrogenase. […] The dehydrogenase is specific to L-Galactose, not reacting with D-Mannose or D-Galactose or a range of other sugars (Gatzek et al., 2002; Laing et al., 2004) except for L-Gulose. […] Consequently, our coupled assay would measure primarily L-Galactose and also L-Gulose. The applicants either measured the product formed by adding the coupling enzymes in the assay and measuring the time course of NADH formed, or by stopping the reaction after 10 minutes by boiling for 3 minutes and centrifuging. To this latter fixed time assay, the applicants then either adding coupling enzymes to measure L-Galactose production or using the LCMS to measure the products. The LCMS was used only to confirm the results of the coupled enzyme reaction and to measure the reverse reaction.

[2] = biological target: T1, kiwifruit GDP-L-Galactose Guanyltransferase EST 319998 (Actinidia chinensis, UniProt A0A2R6QD99); assay: Continuous coupled assay of transferase activity with guanyl acceptors; conditions: for ability to act as acceptor for the guanyl moiety / Km / vamax: FIG. 3; for ability to act as acceptor for the guanyl moiety: physiological concentrations; for Km / vamax: varying concentrations of the guanyl acceptor, continuous coupled assay; for % of D-mannose-1P / Rate: sugar phosphate as guanyl acceptor, epimerase generated substrate; for Rate: N = 6
T1 sequence (A0A2R6QD99 entry or part of it): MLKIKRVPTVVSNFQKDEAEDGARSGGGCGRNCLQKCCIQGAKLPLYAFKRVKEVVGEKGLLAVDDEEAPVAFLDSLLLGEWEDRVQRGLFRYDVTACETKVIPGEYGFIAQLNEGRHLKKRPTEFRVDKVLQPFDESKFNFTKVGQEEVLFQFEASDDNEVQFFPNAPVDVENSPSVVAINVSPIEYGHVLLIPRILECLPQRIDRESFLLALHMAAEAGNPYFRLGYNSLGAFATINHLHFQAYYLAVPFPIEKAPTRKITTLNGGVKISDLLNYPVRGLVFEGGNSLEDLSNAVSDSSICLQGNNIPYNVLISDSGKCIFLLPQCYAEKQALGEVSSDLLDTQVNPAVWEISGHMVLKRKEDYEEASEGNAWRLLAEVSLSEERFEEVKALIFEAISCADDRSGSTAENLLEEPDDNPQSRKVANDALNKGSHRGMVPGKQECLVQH
Method: Expression of genes in E. coli. The EST 319998 from young fruit of Actinidia chinensis and At4g26850 were each cloned into pET30A (Novagene, USA), their sequence checked and expressed in E. coli. The N terminal His6 tag was used to purify the protein. An empty vector control was expressed and purified in parallel. Techniques were essentially as described earlier (Laing et al., 2004).
as §1
The assay for GDP-L-Galactose-1-Phosphate Guanyltransferase was run in 20 mM TrisCl, pH 8.0, GDP-L-Galactose, with 1 mM D-Mannose-1-Phosphate. […] In the latter case, 0.21 mg of epimerase was incubated with GDP-D-Mannose in 20 mM Tris Cl pH 8 in a total volume of 400 μL (see Wolucka et al., 2001) for 30 minutes at 20 C and then used directly in the assay at a 1 to 20 dilution. Assays were either terminated after 10 minutes by heating to 100 C for three minutes, or directly coupled to the phosphatase and L-Galactose dehydrogenase to measure product formation during the assay. Heat terminated assays were cooled on ice, centrifuged to remove precipitated protein and L-Galactose assayed using the coupling enzymes described above (see also (Laing et al., 2004)).
The applicants used two assays to characterise the enzyme, using two sources of the substrate GDP-L-Galactose. The first assay used the E. coli expressed coupling enzymes L-Galactose-1-Phosphate phosphatase and L-Galactose dehydrogenase. […] The applicants either measured the product formed by adding the coupling enzymes in the assay and measuring the time course of NADH formed, or by stopping the reaction after 10 minutes by boiling for 3 minutes and centrifuging. To this latter fixed time assay, the applicants then either adding coupling enzymes to measure L-Galactose production or using the LCMS to measure the products. The LCMS was used only to confirm the results of the coupled enzyme reaction and to measure the reverse reaction.

[3] = biological target: T1, kiwifruit GDP-L-Galactose Guanyltransferase EST 319998; assay: Fixed time transferase assay, aliquots measured by LCMS; assay type: biochemical; conditions: acceptor Gal1P (reverse reaction)
Method: The assay for GDP-L-Galactose-1-Phosphate Guanyltransferase was run in 20 mM TrisCl, pH 8.0, GDP-L-Galactose, with 1 mM D-Mannose-1-Phosphate. GDP-L-Galactose was either used directly from the Glycoteam product (in which case high backgrounds were observed due to contaminating L-Galactose-1-Phosphate) or GDP-L-Galactose was generated using the epimerase. In the latter case, 0.21 mg of epimerase was incubated with GDP-D-Mannose in 20 mM Tris Cl pH 8 in a total volume of 400 μL (see Wolucka et al., 2001) for 30 minutes at 20 C and then used directly in the assay at a 1 to 20 dilution. Assays were either terminated after 10 minutes by heating to 100 C for three minutes, or directly coupled to the phosphatase and L-Galactose dehydrogenase to measure product formation during the assay. Heat terminated assays were cooled on ice, centrifuged to remove precipitated protein and L-Galactose assayed using the coupling enzymes described above (see also (Laing et al., 2004)). Assays for L-Galactose were linear with added L-Galactose-1-Phosphate over the range measured. Backgrounds were run using the empty vector control, which gave the same result as a boiled enzyme control.
As an alternative assay, LCMS was used to identify the forward reaction described above as well measure as the reverse pyrophosphorylase reaction where GTP (1 mM) and L-Galactose-1-Phosphate were incubated as above and the formation of GDP-L-Galactose followed. GDP-D-Mannose and GDP-L-Galactose were separated by HPLC before MS. LC-MS employed an LTQ linear ion trap mass spectrometer fitted with an ESI interface (ThermoQuest, Finnigan, San Jose, Calif., USA) coupled to an EttanTM MDLC (GE Healthcare Bio-Sciences). Separation of GDP-D-Mannose and GDP-L-Galactose was achieved using a Hypercarb column (Thermo Electron, USA), 100×2.1 mm maintained at 40 C. Solvents were (A) 50 mM ammonium acetate and (B) acetonitrile and the flow rate was 200 uL/min. The initial mobile phase, 5% B was held for 3 min, then ramped linearly to 20% B at 11 min, held for 5 min, then ramped linearly to 70% B at 19 min and held for 5 min before resetting to the original conditions. Retention times for GDP-D-Mannose and GDP-L-Galactose were 16.8 min and 17.5 min, respectively.
MS data was acquired in the negative mode using both a selective reaction monitoring (SRM) method SRM m/z 604>m/z 344, 362, 424, 442 and a selected ion monitoring (SIM) method SIM m/z 604. This SIM method monitors only the (M-H)— ion for GDP-D-Mannose and GDP-L-Galactose while the SRM method monitors the distinctive daughter ions formed by fragmenting the precursor ion (M-H)— for both compounds. Both methods maximise sensitivity by screening out any chemical noise from other compounds present. The ESI voltage, capillary temperature, sheath gas pressure, sweep gas and auxiliary gas were set at −10 V, 350° C., 25 psi, 3 psi, and 3 psi, respectively. Separation of D-Mannose-1-Phosphate and L-Galactose-1-Phosphate was achieved isocratically using a Hypercarb column (Thermo Electron, USA), 100×2.1 mm maintained at 40° C. Solvents were (A) 20 mM ammonium acetate and (B) methanol and the flow rate was 200 uL/min. Using a mobile phase of 2% B the retention times for D-Mannose-1-Phosphate and L-Galactose-1-Phosphate were 4.3 min and 4.9 min, respectively. MS data was acquired in the negative mode using both a selective reaction monitoring (SRM) method SRM m/z 259>m/z 79, 97 and a selected ion monitoring (SIM) method SIM m/z 259. […]

[4] = tested on: Tobacco (Nicotiana benthamiana) leaves; assay: Leaf ascorbate after transient transformation of tobacco leaves; assay type: in vivo; conditions: transient expression with P19
From the text: Tobacco (Nicotiana benthamiana) was transiently transformed with Agrobacterium containing the kiwifruit gene for GDP-L-Galactose Guanyltransferase (EST 319998) cloned in pGreen (Hellens et al., 2000) mixed with Agrobacterium containing the gene for the silencing suppressor P19 as previously described (Hellens et al., 2005). Controls were run using Agrobacterium containing P19 in pGreen alone. Tobacco leaves were harvested 9 days after transformation and frozen in liquid nitrogen.
Ascorbate was extracted as described previously in metaphosphoric acid without reducing agent (Davey et al., 2003; Rassam and Laing, 2005). […]

KM (substrate) relative to L-Galactose [1]: 30 times
maximum velocity with L-Gulose relative to L-Galactose [1]: approximately 2.5 fold
activity compared with L-Galactose ([1]; at limiting substrate concentrations): about 8%
Molecule: O=C[C@@H](O)[C@@H](O)[C@H](O)[C@@H](O)CO [L-Gulose]

ability to act as acceptor for the guanyl moiety [2]: reaction was seen
Km [2]: 160 ± 50 µM
vamax [2]: 0.032±0.002 nmoles sec^−1 ug^−1 protein
Molecule: O=P(O)(O)OP(=O)(O)O [pyrophosphate, inorganic pyrophosphate]

Molecule: O=P(O)(O)O[C@H]1O[C@H](CO)[C@@H](O)[C@H](O)[C@@H]1O [D-Mannose-1-P, D-Mannose-1-Phosphate]
ability to act as acceptor for the guanyl moiety [2]: better acceptor for the guanyl moiety than phosphate or pyrophosphate
% of D-mannose-1P [2]: 100%
Rate [2]: 0.33 nmoles/sec/ug protein
vamax [2]: 0.17±0.009 nmoles sec^−1 ug^−1 protein

Molecule: Nc1nc2c(ncn2[C@@H]2O[C@H](COP(=O)(O)OP(=O)(O)O[C@H]3O[C@H](CO)[C@@H](O)[C@H](O)[C@@H]3O)[C@@H](O)[C@H]2O)c(=O)[nH]1 [GDPMan, GDP-D-Mannose]
transferase activity, LCMS ([3]; 0.057 ug protein): 0 nmoles/sec/ug protein
transferase activity, LCMS ([3]; 1.14 ug protein): 0 nmoles/sec/ug protein

Molecule: O=P(O)(O)O[C@H]1O[C@H](CO)[C@H](O)[C@H](O)[C@H]1O [D-Galactose-1-P]
% of D-mannose-1P [2]: 113%
Rate [2]: 0.38 nmoles/sec/ug protein

Molecule: O=P(O)(O)O[C@H]1O[C@H](CO)[C@@H](O)[C@H](O)[C@H]1O [D-Glucose-1-P]
% of D-mannose-1P [2]: 106% and 74%
Rate [2]: 0.35 nmoles/sec/ug protein and 0.24 nmoles/sec/ug protein

Molecule: O=P(O)(O)OC[C@H]1OC(O)[C@H](O)[C@@H](O)[C@@H]1O (stereo partly drawn) [D-Glucose-6-P]
rate relative to the best acceptors ([2]; guanyl acceptor, Table 2): about 25%
% of D-mannose-1P [2]: 24%
Rate [2]: 0.08 nmoles/sec/ug protein

ability to act as acceptor for the guanyl moiety [2]: reaction was seen
Km [2]: 4400 ± 2000 µM
vamax [2]: 0.12±0.03 nmoles sec^−1 ug^−1 protein
Molecule: O=P(O)(O)O [phosphate, inorganic phosphate]

transferase activity, LCMS ([3]; 0.057 ug protein): 0 nmoles/sec/ug protein
transferase activity, LCMS ([3]; 1.14 ug protein): 0 nmoles/sec/ug protein
Molecule: Nc1nc2c(ncn2[C@@H]2O[C@H](COP(=O)(O)OP(=O)(O)OP(=O)(O)O)[C@@H](O)[C@H]2O)c(=O)[nH]1 [GTP]

B1: 82552_Md: GDP-L-Galactose Guanyltransferase from Malus x domesticus (apple) (protein)
chain: MLRIKRVPTVVSNYQKDEAEEVARRVGGCGRNCLNQCCIPGAKLPLYAFKKLNVNDGDTGLLGREKREPPVAFLDSLLLGEWEDRMQRGLFRYDVTACETKVIPGQFGFIAQLNEGRHLKKRPTEFRVDKVLQPFDGSKFNFTKVGQEEVLFQFEASKDGEVQFFPSAPIDVESSPSVVAINVSPIEYGHVLLIPHILERLPQRIDRESFLLALHMAAEAGNPYFRLGYNSLGAFATINHLHFQAYYLAVTFPIEKAPTKKISTLNAEVKVSELLNYPVRGLVFEGGNTLQDLSNTVSDACICLQENNIPYNVLISDSGKRIFLVPQCYAEKQALGEVRAEILDTQVNPAVWEISGHMVLKRKKDYDEASDENAWKLLAEVSLSEERFLEVNALIFEGIASGDNGNENLLKDPEVKPRSHEEVNTINKRVHCSAVNEQICRVFTM
modifications: Malus x domesticus
effect on leaf ascorbate [4]: increased ascorbate levels in the leaf
